Entries after “also recorded” stand apart in the source; their conditions may differ.
Experiments:
1A9 cells [1] = assay: cells; assay type: cell-based, human; settings: parental 1A9 cells, 72 hour exposure to the drug
Description: (§1) The epothilone A resistant cell line, 1A9-A8, was selected from the human ovarian carcinoma 1A9 cells as described by Giannakakou et al. ((2000) Proc. Natl. Acad. Sci. USA 97:2904-2909). The 1A9-A8^E clone (expressing both wt and mutant alleles) was an intermediate isolate in the selection process of 1A9-A8 (mutant allele only) cells. These cells were cultured in RPMI 1640 medium (Cellgro, Herndon, Va.) supplemented with 10% fetal bovine serum (Invitrogen, Carlsbad, Calif.) and 1% Penicillin-Streptomycin (Cellgro), and grown as monolayers at 37° C. in a 5% CO2 tissue culture incubator. The mouse monoclonal anti-α-tubulin (DM1α) antibody used is from Sigma Chemical Co. (St. Louis, Mo.). Both epothilones A and B were a generous gift from the laboratory of K. C. Nicolaou (The Scripps Research Institute, La Jolla, Calif.). Paclitaxel (Taxol®) was purchased from Sigma Chemical Co. and vincristine from Eli-Lilly (Indianapolis, Ind.).
(§2) Cytotoxicity assays using the protein-staining sulforhodamine B (SRB) method were performed in 96-well plates, as described by Giannakakou et al. ((1997) J. Biol. Chem. 272:17118-17125).

1A9-A8 cells [2] = assay: cells; assay type: cell-based, human; settings: for IC50: 1A9-A8 cells, 72 hour exposure to the drug; for Relative Resistance (1A9-A8): ratio of IC50 against 1A9-A8 divided by IC50 against parental 1A9
Description: as §1, §2

1A9-A8^E cells [3] = assay: cells; assay type: cell-based, human; settings: for IC50: 1A9-A8^E cells, 72 hour exposure to the drug; for Relative Resistance (1A9-A8^E): ratio of IC50 against 1A9-A8^E divided by IC50 against parental 1A9; for resistance of early-step isolate 1A9-A8^E to the selecting agent: growth inhibition assays, versus parental 1A9
Description: as §1, §2

KB-3-1 epidermal cells = settings: Asp26Glu β-tubulin mutation; cited from earlier work
[4] = test system: human epidermoid carcinoma cell line; settings: Thr274Pro β-tubulin mutation; cited from earlier work
[5] = test system: 1A9/B10 ovarian cancer cells; settings: βArg282Gln mutation, EpoB-selected 1A9/B10 cells; cited from earlier work
[6] = test system: human breast cancer cells; settings: Glu198Gly β-tubulin mutation; cited from earlier work
[7] = test system: non-small cell lung cancer (NSCLC), Hela, and human leukemia cells; settings: Gln292Glu β-tubulin mutation; cited from earlier work
tubulin [8] = molecular target: T1, tubulin (Homo sapiens, UniProt P07437); assay: Cell-based tubulin polymerization assay, 1A9 cells
T1 construct: endogenous in cells; host or cells: 1A9 human ovarian carcinoma cells
T1 sequence (P68363 whole entry): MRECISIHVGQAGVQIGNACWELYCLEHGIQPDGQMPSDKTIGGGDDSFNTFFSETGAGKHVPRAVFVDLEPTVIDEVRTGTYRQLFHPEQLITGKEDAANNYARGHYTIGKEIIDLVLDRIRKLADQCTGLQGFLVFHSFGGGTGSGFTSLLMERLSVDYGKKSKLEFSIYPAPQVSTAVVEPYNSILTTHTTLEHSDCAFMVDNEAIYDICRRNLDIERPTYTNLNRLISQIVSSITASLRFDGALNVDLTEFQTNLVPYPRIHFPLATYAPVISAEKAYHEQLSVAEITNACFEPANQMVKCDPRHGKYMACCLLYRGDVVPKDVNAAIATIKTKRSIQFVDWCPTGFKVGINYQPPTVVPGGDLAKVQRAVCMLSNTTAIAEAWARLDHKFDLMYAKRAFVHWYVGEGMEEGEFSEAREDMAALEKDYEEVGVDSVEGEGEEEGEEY
T1 sequence (P07437 whole entry): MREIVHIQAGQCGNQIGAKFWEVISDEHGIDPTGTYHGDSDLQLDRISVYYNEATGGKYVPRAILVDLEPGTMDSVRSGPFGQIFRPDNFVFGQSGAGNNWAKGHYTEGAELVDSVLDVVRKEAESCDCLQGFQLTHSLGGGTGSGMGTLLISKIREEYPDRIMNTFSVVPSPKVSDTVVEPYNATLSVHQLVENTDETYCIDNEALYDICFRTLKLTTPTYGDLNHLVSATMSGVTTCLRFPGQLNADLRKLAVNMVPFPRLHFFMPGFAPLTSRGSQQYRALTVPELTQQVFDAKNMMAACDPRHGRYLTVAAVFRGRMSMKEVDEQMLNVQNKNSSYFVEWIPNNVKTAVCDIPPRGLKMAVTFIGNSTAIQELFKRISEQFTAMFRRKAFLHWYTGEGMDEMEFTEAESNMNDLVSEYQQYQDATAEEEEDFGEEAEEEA
Description: (§3) Drug-sensitive parental 1A9 (top panel) and the Epo A-resistant clones, 1A9/A8 and 1A9/A8E (lower panel), were treated for 5 hours with or without (0) various concentrations of Epo A as indicated. After cell lysis, the polymerized (P) and the soluble (S) protein fractions were separated by centrifugation, resolved by SDS/PAGE, and immunoblotted with an antibody against alpha-tubulin. The percent of polymerized tubulin (% P) was determined by dividing the densitometric value of polymerized tubulin by the total tubulin content (the sum of P plus S). The results shown are from a representative experiment of four independent observations.
(§4) In order to examine whether the tubulin gene status correlates with the ability of epothilone to induce tubulin polymerization in the three related cell lines (1A9, 1A9-A8, and 1A9-A8^E), cell-based tubulin polymerization assays were performed (FIG. 1). After treating the cells with escalating doses of Epo A, the cells were harvested in a low salt buffer and then centrifuged to separate the pellet fraction containing the polymerized form of tubulin, from the supernatant that contains the soluble form of tubulin. […]
(§5) Quantitation of the degree of in vivo tubulin polymerization in response to Epothilone A was performed as described by Giannakakou et al. ((1997) J. Biol. Chem. 272:17118-17125). […]

tubulin [9] = assay: Cell-based tubulin polymerization assay, 1A9-A8^E cells; set-up: species or system human
Description: as §3, §4, §5

tubulin [10] = molecular target: T2, tubulin (Homo sapiens, UniProt P07437, T274I); assay: Cell-based tubulin polymerization assay, 1A9-A8 cells
T2 construct: endogenous in cells; host or cells: 1A9-A8 cells (late-step epothilone A-resistant clone of 1A9)
T2 sequence (P07437 whole entry T274I): as the sequence (P07437 whole entry) above, with T274I counted along it
T2 sequence (P68363 whole entry partner): as the sequence (P68363 whole entry) above
Description: as §3, §4, §5

1A9 cells [11] = assay: Mitotic index analysis, 1A9 cells; assay type: cell-based, human; settings: 24 hr
Description: (§6) Cells were plated on glass coverslips and treated with drugs for 24 hours. Cells were fixed with ice-cold methanol and DNA was stained with Sytox Green (Molecular Probes, Eugene, Oreg.). Epifluorescence microscopy was used to count a minimum of 500 cells per drug treatment and mitotic figures were scored.

1A9-A8^E cells [12] = assay: Mitotic index analysis, 1A9-A8^E cells; assay type: cell-based, human; settings: 24 hr
Description: as §6

1A9-A8 cells [13] = assay: Mitotic index analysis, 1A9-A8 cells; assay type: cell-based, human; settings: 24 hr
Description: as §6

1A9 cells [14] = assay: Cell cycle analysis by flow cytometry (G2/M arrest), 1A9 cells; assay type: cell-based, human
Description: (§7) Cell cycle analysis by flow cytometry was performed in the parental 1A9 and the 1A9-Epo^R clones, following overnight treatment with Epo A or Vincristine (VCR) as indicated. […] 10,000 events were recorded for each condition, the histogram is representative of three independent experiments.
(§8) Cells were plated in 6-well plates. The following day, they were treated with various concentrations of epothilone A and vincristine for 18 hours. Following treatment, both adherent and floating cells were harvested and pelleted by centrifugation. Cell pellets were suspended in 1 ml of 0.1 mg/ml propidium iodide containing 0.6% NP40 (ICN Pharmaceuticals, Costa Mesa, Calif.) with 1 mg/ml RNase A (Sigma Chemical Co.), then incubated in the dark at room temperature for 30 minutes. Data acquisition and analysis were performed on a FACScan instrument equipped with CellQuest software (Becton Dickinson Immunocytometry Systems, Franklin Lakes, N.J.). Cell cycle analysis was performed with Flowjo (Treestar). All cell cycle experiments were performed at least three times.

1A9-A8^E cells [15] = assay: Cell cycle analysis by flow cytometry (G2/M arrest), 1A9-A8^E cells; assay type: cell-based, human
Description: as §7, §8

1A9-A8 cells [16] = assay: Cell cycle analysis by flow cytometry (G2/M arrest), 1A9-A8 cells; assay type: cell-based, human
Description: as §7, §8

[17] = test system: human ovarian cancer clones; settings: two Taxol-selected ovarian clones, Phe270Val and Ala364Thr; cited from earlier work
[18] = test system: epothilone-resistant human ovarian cancer cell lines; settings: Thr274Ile and Arg282Gln epothilone-selected ovarian lines; cited from earlier work

C/C(=C\c1csc(C)n1)[C@@H]1C[C@@H]2O[C@]2(C)CCC[C@H](C)[C@H](O)[C@@H](C)C(=O)C(C)(C)[C@@H](O)CC(=O)O1 [Epothilone B]
IC50 (1A9 cells [1]): 0.9 nM
IC50 (1A9-A8 cells [2]): 29 nM
Relative Resistance (1A9-A8) (1A9-A8 cells [2]): 32
IC50 (1A9-A8^E cells [3]): 8 nM
Relative Resistance (1A9-A8^E) (1A9-A8^E cells [3]): 9
fold resistance / cross-resistance (KB-3-1 epidermal cells): minimal cross-resistance
fold resistance / cross-resistance [4]: 8 fold
fold resistance / cross-resistance [5]: 24-53 fold

CC(=O)O[C@@]12CO[C@@H]1C[C@H](O)[C@@]1(C)C(=O)[C@H](O)C3=C(C)[C@@H](OC(=O)[C@H](O)[C@@H](NC(=O)OC(C)(C)C)c4ccccc4)C[C@@](O)([C@@H](OC(=O)c4ccccc4)[C@H]21)C3(C)C [Taxotere]
fold resistance / cross resistance [6]: some cross resistance
fold resistance / cross-resistance (KB-3-1 epidermal cells): 10 fold
fold resistance / cross-resistance [7]: 13 fold

C/C(=C\c1csc(C)n1)[C@@H]1C[C@@H]2O[C@@H]2CCC[C@H](C)[C@H](O)[C@@H](C)C(=O)C(C)(C)[C@@H](O)CC(=O)O1 [Epothilone A]
IC50 (1A9 cells [1]): 3.2 nM
IC50 (1A9-A8 cells [2]): 125 nM
resistance of late-step 1A9-A8 clone to the selecting agent (1A9-A8 cells [2]; growth inhibition assays, versus parental 1A9): 40 fold
Relative Resistance (1A9-A8) (1A9-A8 cells [2]): 39
IC50 (1A9-A8^E cells [3]): 32 nM
resistance of early-step isolate 1A9-A8^E to the selecting agent (1A9-A8^E cells [3]): 10 fold
resistance of early-step isolate 1A9-A8^E to the selecting agent (1A9-A8^E cells [3]; listed as Epo A): ten-fold
Relative Resistance (1A9-A8^E) (1A9-A8^E cells [3]): 10
effect on tubulin polymerization (tubulin [8]; 1A9 cells, escalating doses): dose-dependent increase in tubulin polymerization
percent of polymerized tubulin (% P) (tubulin [8]; parental 1A9 cells, 150 nM): 90%
effect on tubulin polymerization (tubulin [9]; 1A9-A8^E cells, escalating doses): intermediate degree of tubulin polymerization
percent of polymerized tubulin (% P) (tubulin [9]; early-step 1A9-A8^E cells, 150 nM): 70%
effect on tubulin polymerization (tubulin [10]; 1A9-A8 cells, up to highest drug concentration (1500 nM)): almost no effect on tubulin polymerization
percent of polymerized tubulin (% P) (tubulin [10]; late-step 1A9-A8 cells, 150 nM): 3%
Mitotic Index (%) (1A9 cells [11]; 10 nM): 82%
Mitotic Index (%) (1A9 cells [11]; 100 nM): 96%
Mitotic Index (%) (1A9-A8^E cells [12]; 10 nM): 39%
Mitotic Index (%) (1A9-A8^E cells [12]; 100 nM): 47%
Mitotic Index (%) (1A9-A8 cells [13]; 10 nM): 2.7%
Mitotic Index (%) (1A9-A8 cells [13]; 100 nM): 6.1%
G2/M arrest (1A9 cells [14]; Epo A overnight treatment): complete G2/M arrest
G2/M arrest (1A9-A8^E cells [15]; Epo A overnight treatment): partially arrested in G2/M; also recorded: modest G2/M arrest
G2/M arrest (1A9-A8 cells [16]; Epo A overnight treatment, even at the highest concentration): failed to arrest in mitosis; also recorded: no change was observed in the cell cycle profile
fold resistance / cross-resistance [4]: 45 fold
fold resistance / cross-resistance [5]: 57-74 fold

CC[C@]1(O)C[C@H]2CN(CCc3c([nH]c4ccccc34)[C@@](C(=O)OC)(c3cc4c(cc3OC)N(C=O)[C@H]3[C@@](O)(C(=O)OC)[C@H](OC(C)=O)[C@]5(CC)C=CCN6CC[C@]43[C@@H]65)C2)C1 [Vincristine]
G2/M arrest (1A9 cells [14]; 10 nM): G2/M arrest
G2/M arrest (1A9-A8^E cells [15]; 10 nM): arrested in G2/M
G2/M arrest (1A9-A8^E cells [15]; 10 nM, listed as vincristine): G2/M arrest
G2/M arrest (1A9-A8 cells [16]; 10 nM): arrested in G2/M
G2/M arrest (1A9-A8 cells [16]; 10 nM, listed as vincristine): G2/M arrest

CC(=O)O[C@H]1C(=O)[C@@]2(C)[C@H]([C@H](OC(=O)c3ccccc3)[C@]3(O)C[C@H](OC(=O)[C@H](O)[C@@H](NC(=O)c4ccccc4)c4ccccc4)C(C)=C1C3(C)C)[C@]1(OC(C)=O)CO[C@@H]1C[C@@H]2O [Paclitaxel]
IC50 (1A9 cells [1]; Homo sapiens): 1.5 nM
IC50 (1A9-A8 cells [2]; Homo sapiens): 15 nM
Relative Resistance (1A9-A8) (1A9-A8 cells [2]): 10
IC50 (1A9-A8^E cells [3]; Homo sapiens): 9 nM
Relative Resistance (1A9-A8^E) (1A9-A8^E cells [3]): 6
fold resistance (IC50 resistant line over IC50 parental line) [17]: 30 fold
fold resistance / cross resistance [6]: 17 fold
fold resistance / cross-resistance (KB-3-1 epidermal cells): 18 fold
cross-resistance [18]: 7-10 fold
fold resistance / cross-resistance [4]: 96 fold
fold resistance / cross-resistance [7]: 22 fold

Reference: US20070190544A1, “Methods of screening for resistance to microtuble-targeting drugs” (Emory University, priority 2005, published 2007)
